In patent publication US4863963A, “Novel cinnamoylamide derivatives” (Ono Pharmaceutical Co., Ltd., priority 1987, dated 1989) one finds IC50 data, which are given here for 17 molecules.

As usually defined, the IC50 is the concentration that inhibits the measured activity by half.

The assay deals with 5α-reductase. Put plainly: Inhibitory activity on 5α-reductase in vitro (conversion of [4-C^14]-testosterone to dihydrotestosterone). The assay is classed as biochemical. To be noted: male rat prostate enzyme, 60 mins at 37° C., pH 7.4; compounds of the present invention. As for the experimental part:
Inhibitory activity on 5-reductase in vitro
The test was carried out with reference to the method of J. Shimazaki et al [See Endocrinol, Japon., 18, 179 (1971)).]
Male rat's prostate (4 g) was homogenized with its triple volume of 0.1M HEPES buffer (PH 7.4) including 0.25M cane sugar and was centrifuged at 3000 r.p.m. for 10 mins.
The precipitate was suspended into the buffer solution described above (10 ml), and the suspension was centrifuged at 3000 r.p.m for 5 mins. The resulting precipitate was suspended in the buffer solution(3 ml) described above and was used as a sauce of enzyme.
A reaction mixture (total volume 0.1 ml) of [4-C^14 ]-testosterone (1.5 n mol, 1.5×10^3 cpm), NADPH (0.5 μmol), enzyme solution (0.03 ml) described above and several kinds of concentration of the compounds in the present invention was incubated for 60 mins at 37° C. Enzyme reaction was quenched by addition of a mixture (0.4 ml) of chloroform and methanol (1:2), and the mixture was centrifuged at 2000 r.p.m for 3 mins. The supernatant (50 μl) was spotted on silica gel thin layer plate. The spot on the plate was developed with a mixture of chloroform, methanol and acetic acid (99.2:0. 6:0.2). Radioactivity of dihydrotestosteron generated on plate was measured by TLC scanner of radio-autography and inhibitory ratio was calculated.

For the molecule `CCCCCOc1c(Cl)cc(/C(C)=C/C(=O)Nc2ccccc2OCCCC(=O)O)cc1Cl` [Example 1, 4-[2-(3,5-dichloro-4-pentyloxy-β-methylcinnamoylamino)phenoxy]butanoic acid], the 50% inhibitory concentration (IC50) was 90 nM. Take `CCCCCOc1c(OC)cc(/C(C)=C/C(=O)Nc2ccccc2OCCCC(=O)O)cc1OC` [Example 1-1, 4-[2-(3,5-dimethoxy-4-pentyloxy-β-methylcinnomoylamino)phenoxyl] butanoic acid]: the IC50 turned out to be 1600 nM. The result for `CCCCCOc1cc(/C(C)=C/C(=O)Nc2ccccc2OCCCC(=O)O)cc(OCCCCC)c1OCCCCC` [Example 1-2] reads 1800 nM; that for `CCCCCOc1c(C)cc(/C(C)=C/C(=O)Nc2ccccc2OCCCC(=O)O)cc1C` [Example 1-3, 4-[2-(3,5-dimethyl-4-pentyloxy-β-methylcinnamoylamino)phenoxy] butanoic acid], 2100 nM; that for `COc1c(C(C)(C)C)cc(/C(C)=C/C(=O)Nc2ccccc2OCCCC(=O)O)cc1C(C)(C)C` [Example 1-4, 4-[2-(3,5-di-tert-butyl-methoxy-β-methylcinnamoylamino)phenoxy] butanoic acid], 1000 nM. On to `CCCCCOc1ccc(/C(C)=C/C(=O)Nc2ccccc2OCCCC(=O)O)c(Cl)c1Cl` [Example 1-5, 4-[2-(2,3-dichloro-4-pentyloxy-β-methylcinnomoylamino)phenoxy] butanoic acid], for which the half-maximal inhibitory concentration (IC50) was 5600 nM.

In turn, `CCCCOc1c(Cl)cc(/C(C)=C/C(=O)Nc2ccccc2OCCCC(=O)O)cc1Cl` [Example 1-6, 4-[2-(3,5-dichloro-4-butoxy-β-methylcinnamoylamino)phenyoxy] butanoic acid] returned a concentration for half-maximal inhibition (IC50) of 1600 nM. The molecule `CCCOc1cc(/C(C)=C/C(=O)Nc2ccccc2OCCCC(=O)O)cc(OCCC)c1OCCC` [Example 1-7, 4-[2-(3,4,5-tripropoxy-β-methylcinnamoylamino)phenoxy] butanoic acid] displayed a concentration for half-maximal inhibition (IC50) of 3300 nM. `CCCCOc1cc(/C(C)=C/C(=O)Nc2ccccc2OCCCC(=O)O)cc(OCCCC)c1OCCCC` [Example 1-8] registered a 50% inhibitory concentration (IC50) of 1700 nM. The result for `CCOc1cc(/C(C)=C/C(=O)Nc2ccccc2OCCCC(=O)O)cc(OCC)c1OCC` [Example 1-9, 4-[2-(3,4,5-triethoxy-β-methylcinnamoylamino)phenoxy] butanoic acid] reads 9700 nM; that for `C/C(=C\C(=O)Nc1ccccc1OCCCC(=O)O)c1ccc(CC(C)C)cc1` [Example 1-10, 4-[2-(4-isobutyl-β-methylcinnamoylamino)phenoxy] butanoic acid], 110 nM; that for `CCCCc1ccc(/C(C)=C/C(=O)Nc2ccccc2OCCCC(=O)O)cc1` [Example 1-11, 4-[2-(4-butyl-β-methylcinnomoylamino)phenoxy] butanoic acid], 200 nM.

The molecule `CCCc1ccc(/C(C)=C/C(=O)Nc2ccccc2OCCCC(=O)O)cc1` [Example 1-12, 4-[2-(4-propyl-β-methylcinnamoylamino)phenoxy] utanoic acid] showed an IC50 of 260 nM. Regarding `CCCCOc1ccc(/C(C)=C/C(=O)Nc2ccccc2OCCCC(=O)O)cc1` [Example 1-13, 4-[2-(4-butoxy-β-methylcinnamoylamino)phenoxy] utanoic acid], inhibition was half-maximal at 380 nM (IC50). The result for `CCC(C)c1ccc(/C(C)=C/C(=O)Nc2ccccc2OCCCC(=O)O)cc1` (stereo not drawn) [Example 1-14, 4-[2-(4-sec-butyl-β-methylcinnomoylamino)phenoxy] butanoic acid] reads 280 nM.

For `CCCCCOc1cc(/C(C)=C/C(=O)Nc2ccccc2OCCCC(=O)O)c([N+](=O)[O-])cc1OCCCCC` [Example 1-15, 4-[2-(2-nitro-4,5-dipentyloxy-β-methylcinnomoylamino)phenoxy] butanoic acid], the 50% inhibitory concentration (IC50) came out at 2200 nM. For `CCCCCOc1cc(/C=C(\C)C(=O)Nc2ccccc2OCCCC(=O)O)cc(OCCCCC)c1OCCCCC` [Example 1-16], half-maximal inhibition (IC50) was put at 530 nM.
